Data set [1] concerns drug-sensitive cell lines of Table 2 (EFM-19, MDA-MB-453, T-47D, ZR-75-1, NCI-H441, OVTOKO, NCI-H1838). Description: Cell Line Growth Retardation Assay, sensitive cohort. Particulars: for IC50: Homo sapiens, geometric mean over sensitive cohort, 6 days growth, read-out: AvgSensIC50; for Ther Window: average IC50 drug-resistant group divided by average IC50 drug-sensitive group. The format is cell-based, human. The method, then: (§1) Cells were seeded at densities of 1,000-5,000 cells per well in 48-well tissue culture plates. After a 24 hours rest period, cells were treated with compound at 10 μM, 2 μM, 0.4 μM, 0.08 μM, 0.016 μM, and 0.0032 μM. A group of cells were treated with the vehicle in which the compound was prepared and served as a control. The cells were grown in the presence of compounds for 6 days and were counted on day 0 and day 6. A11 cell counting was performed using a Synentec Cellavista plate imager. […] Growth inhibition was calculated as a ratio of cell population doublings in the presence of compound versus the absence of compound. […] IC50 values for each compound (see Table 3; reported in μM) were calculated by fitting curves to data points from each dose-response assay using the Proc NLIN function in SAS for Windows version 9.2 (SAS Institute, Inc.).
(§2) These sensitive and resistant cohorts were interrogated for response to each compound, and IC50s were calculated for each cell line using the same technique described above. Average IC50s for the sensitive and resistant cohorts were calculated as geometric means of the group. “Therapeutic Window” for each compound was calculated by dividing the average IC50 for the drug-resistant group by the average IC50 for the drug-sensitive group.

A short description of data set [2]: Compound Solubility Assay (kinetic solubility). In kind it is physicochemical. Particulars: kinetic from dmso stock. The method, then: The relative kinetic solubility of each compound was determined at both low (1.2) and neutral (7.4) pH. Compounds were prepared at 10 mM stocks. […] Compounds were allowed to shake at room temperature for 24 hours in 50 mM phosphate buffer pH 7.4, or in SGF buffer pH 1.2 at 37° C. for 24 hours.

In another data set the target is CDK6 (Homo sapiens (Human), UniProt Q00534). Description: Cdk4 and 6 Enzymatic Inhibition Assay (radiometric 33PanQinase, Ki determination). In kind it is biochemical. How it is done: (§3) 10 distinct concentrations were prepared, with a dilution endpoint of 6×10^−9 M in 100% DMSO. 100% DMSO was used as a control. 10 μL from each of the serial dilutions were aliquoted into separate wells of a 96-well plate and 90 μL of water were added to each of those wells. The plate was shaken thoroughly, and 5 μL from each of the plate's wells were transferred into wells of the assay plate. The final volume of wells in the assay plate was 50 μL. A11 compounds were tested at 10 assay concentrations in the range from 2×10^−6 M to 6×10^−11 M. The final DMSO concentration in the wells of the assay plate was 1% in all cases.
Chain of CDK6 (Q00534 whole entry): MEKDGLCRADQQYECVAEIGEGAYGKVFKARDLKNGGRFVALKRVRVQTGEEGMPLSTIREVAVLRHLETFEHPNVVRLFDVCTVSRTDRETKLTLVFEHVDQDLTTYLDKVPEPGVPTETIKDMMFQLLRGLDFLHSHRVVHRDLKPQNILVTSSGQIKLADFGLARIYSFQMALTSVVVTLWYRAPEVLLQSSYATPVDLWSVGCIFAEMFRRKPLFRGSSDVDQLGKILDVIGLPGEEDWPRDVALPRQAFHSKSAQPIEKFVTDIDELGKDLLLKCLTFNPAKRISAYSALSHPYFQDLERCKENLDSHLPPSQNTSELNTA
Chain of CDK6 (P24385 whole entry partner): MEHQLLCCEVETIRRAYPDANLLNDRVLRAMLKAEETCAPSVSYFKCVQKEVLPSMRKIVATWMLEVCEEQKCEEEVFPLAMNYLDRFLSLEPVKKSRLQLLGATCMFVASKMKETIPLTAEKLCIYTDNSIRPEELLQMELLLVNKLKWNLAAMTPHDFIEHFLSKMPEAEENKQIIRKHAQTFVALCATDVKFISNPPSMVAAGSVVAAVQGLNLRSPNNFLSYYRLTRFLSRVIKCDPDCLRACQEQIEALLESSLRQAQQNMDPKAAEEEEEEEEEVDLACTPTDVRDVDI
(§4) A radiometric protein kinase assay (33PanQinase® Activity Assay) was used for measuring the kinase activity of six protein kinases. A11 kinase assays were performed in 96-well FlashPlates™ from PerkinElmer (Boston, MA, USA). The assay for all protein kinases contained 70 mM HEPES-NaOH pH 7.5, 3 mM MgCl2, 3 mM MnCl2, 3 μM Na-orthovanadate, 1.2 mM DTT, 50 μg/mL PEG20000, ATP [γ-33P]-ATP (approx. 9×1005 cpm per well), protein kinase and substrate. The reaction cocktails were incubated at 30° C. for 60 minutes. The reaction was stopped with 50 μL of 2% (v/v) H3PO4, and plates were aspirated and washed two times with 200 μL 0.9% (w/v) NaCl. Incorporation of ^33Pi was determined with a microplate scintillation counter (Microbeta, Wallac).

The target of a further data set is CDK4 (Homo sapiens (Human), UniProt P11802). The data set is described as above. In kind it is biochemical. The method, then:
as §3, §4

Data set [3] has as its system drug-resistant cell lines of Table 2 (NCI-H1437, OV207, HCC1806, NCI-H2172). The data set can be described thus: Cell Line Growth Retardation Assay, resistant cohort. As to conditions: Homo sapiens, […], geometric mean over resistant cohort; 6 days growth; read-out: AvgResIC50. The format is cell-based, human. The method, then: as §1, §2
Data set [4] is described as follows: Measurement of Compound Metabolic Stability in hepatocytes.
Another data set addresses hERG potassium channels (Homo sapiens (Human), UniProt Q12809). Description: hERG Inhibition Assay (QPatch automated patch clamp, CHO cells). Particulars: percent of control current.
Data set [5] in a line: Caco-2 Assay (Papp A to B). Particulars: human, Caco-2, pH 7.4.
Protocol: The degree of bi-directional human intestinal permeability for compounds was estimated using a Caco-2 cell permeability assay. Caco-2 cells were seeded onto polyethylene membranes in 96-well plates. The growth medium was refreshed every 4 to 5 days until cells formed a confluent cell monolayer. HBSS with 10 mM HEPES at pH 7.4 was used as the transport buffer. Compounds were tested at 2 μM bi-directionally in duplicate. Digoxin, nadolol and metoprolol were included as standards. Digoxin was tested at 10 μM bi-directionally in duplicate, while nadolol and metoprolol were tested at 2 μM in the A to B direction in duplicate. The final DMSO concentration was adjusted to less than 1% for all experiments. The plate was incubated for 2 hours in a CO2 incubator at 37° C., with 5% CO2 at saturated humidity. After incubation, all wells were mixed with acetonitrile containing an internal standard, and the plate was centrifuged at 4,000 rpm for 10 minutes. 100 μL supernatant was collected from each well and diluted with 100 μL distilled water for LC/MS/MS analysis. Concentrations of test and control compounds in starting solution, donor solution, and receiver solution were quantified by LC/MS/MS, using peak area ratio of analyte/internal standard. The apparent permeability coefficient Papp (cm/s) was calculated using the equation: Papp=(dCr/dt)×Vr/(A×C0) Where dCr/dt is the cumulative concentration of compound in the receiver chamber as a function of time (μM/s); Vr is the solution volume in the receiver chamber (0.075 mL on the apical side, 0.25 mL on the basolateral side); A is the surface area for the transport, which is 0.0804 cm^2 for the area of the monolayer; C0 is the initial concentration in the donor chamber (μM).
The subject of data set [6] is CYP isozymes (IC50s averaged over the isozymes). The data set can be described thus: CYP Enzymatic Inhibition Assay in human liver microsomes.
Protocol: Inhibition of various CYP isozymes was measured for each compound using a CYP enzyme inhibition assay in human liver microsomes (HLM). Compounds and standard inhibitors were prepared at a 100× working solutions. Substrates or PBS were added to the corresponding wells followed by addition of compounds, solvent or positive control working solution to corresponding wells. HLMs were added to the pre-warmed (37° C.) plate and mixed with NADPH cofactor for 10 minutes at 37° C. The reaction was terminated by adding 400 μL cold stop solution (200 ng/mL Tolbutamide and 200 ng/mL Labetalol in ACN). The plate was centrifuged at 4,000 rpm for 20 minutes, and supernatant was transferred to 100 μL HPLC water followed by LC/MS/MS analysis.
Setting [7] is: 50 mM phosphate buffer, pH 7.4, aqueous buffer, read-out: KS7.
The mark [8] stands for this setting: simulated gastric fluid, kinetic solubility, SGF buffer pH 1.2, 37° C., 24 hours, read-out: KS1.

Values after ≈ are worked out from the molar mass of the structure shown. Read-outs that look alike come from different tables or passages of the source.

Chain of CDK4 (P11802 whole entry): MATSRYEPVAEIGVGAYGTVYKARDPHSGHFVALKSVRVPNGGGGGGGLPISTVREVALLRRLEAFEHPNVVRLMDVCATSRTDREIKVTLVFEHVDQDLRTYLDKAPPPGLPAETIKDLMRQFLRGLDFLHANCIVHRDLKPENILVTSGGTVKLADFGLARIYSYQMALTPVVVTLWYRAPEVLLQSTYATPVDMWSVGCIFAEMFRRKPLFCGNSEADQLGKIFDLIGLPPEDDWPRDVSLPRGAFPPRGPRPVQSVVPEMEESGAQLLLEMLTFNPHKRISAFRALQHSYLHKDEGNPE
Chain of CDK4 (P24385 whole entry partner): as the sequence (P24385 whole entry partner) above
Chain of hERG potassium channels (Q12809 whole entry): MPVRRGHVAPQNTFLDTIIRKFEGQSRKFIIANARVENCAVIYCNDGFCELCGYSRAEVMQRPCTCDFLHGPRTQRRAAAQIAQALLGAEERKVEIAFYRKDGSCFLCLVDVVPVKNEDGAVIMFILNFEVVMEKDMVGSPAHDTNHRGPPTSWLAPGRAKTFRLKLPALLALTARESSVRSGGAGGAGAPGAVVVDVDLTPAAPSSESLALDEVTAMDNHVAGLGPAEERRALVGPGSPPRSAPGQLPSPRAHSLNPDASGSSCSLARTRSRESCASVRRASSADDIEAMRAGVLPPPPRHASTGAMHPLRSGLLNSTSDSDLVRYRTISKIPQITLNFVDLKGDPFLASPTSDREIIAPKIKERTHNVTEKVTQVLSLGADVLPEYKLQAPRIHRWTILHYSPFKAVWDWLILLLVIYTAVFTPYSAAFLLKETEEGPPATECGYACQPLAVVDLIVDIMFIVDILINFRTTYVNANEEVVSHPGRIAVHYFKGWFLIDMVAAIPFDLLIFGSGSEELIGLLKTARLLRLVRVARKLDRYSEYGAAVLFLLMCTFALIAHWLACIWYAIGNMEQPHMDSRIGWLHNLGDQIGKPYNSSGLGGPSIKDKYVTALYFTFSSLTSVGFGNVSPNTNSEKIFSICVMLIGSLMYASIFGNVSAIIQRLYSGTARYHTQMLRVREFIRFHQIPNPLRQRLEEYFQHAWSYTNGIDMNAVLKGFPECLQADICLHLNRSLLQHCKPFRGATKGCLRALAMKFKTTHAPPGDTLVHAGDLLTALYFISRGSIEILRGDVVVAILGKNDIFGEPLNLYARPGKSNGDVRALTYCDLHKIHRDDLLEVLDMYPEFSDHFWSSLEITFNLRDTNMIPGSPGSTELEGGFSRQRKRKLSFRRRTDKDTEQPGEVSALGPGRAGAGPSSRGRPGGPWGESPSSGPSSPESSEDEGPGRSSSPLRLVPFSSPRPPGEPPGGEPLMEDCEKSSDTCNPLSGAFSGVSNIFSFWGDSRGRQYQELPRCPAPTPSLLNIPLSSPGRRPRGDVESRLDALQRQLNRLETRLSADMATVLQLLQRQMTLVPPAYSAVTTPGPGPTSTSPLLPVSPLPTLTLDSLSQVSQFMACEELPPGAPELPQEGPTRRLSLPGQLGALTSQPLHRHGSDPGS

Consider `CCN(CC)CCC1(C)CN(Cc2ccc(Nc3ncc(F)c(-c4cc(F)c5nc(C)n(C(C)C)c5c4)n3)nc2)CCO1` (stereo in doubt) [Compound A3, (S)—N-(5-((2-(2-(diethylamino)ethyl)-2-methylmorpholino)methyl)pyridin-2-yl)-5-fluoro-4-(4-fluoro-1-isopropyl-2-methyl-1H-benzo[d]imidazol-6-yl)pyrimidin-2-amine], for which the values for the IC50 in [1] and in data set [3] were 70 nM and 1000 nM, respectively. In addition, the “Ther Window” value in [1] is 13.77. Also, the solubility kinetic at 24 h in data set [2] (setting [7]) was 163 µM (≈ 96.6 µg/mL); in [2] (setting [8]) it was 200 µM (≈ 119 µg/mL). For the same compound, the Ki on CDK6 amounted to 7.39 nM; at CDK4, 2.04 nM. In data set [4], this compound had a half-life at 1 μM of 2.17 h. Further, on hERG potassium channels, the hERG was found to be 26.68%. In addition, the Papp A→B at 2 h, 2 μM in data set [5] is 0.05 ×10⁻⁶ cm/s. This compound returned an IC50 at 10 min in data set [6] of 37200 nM.
In the case of `CC(=O)N(C)CC[C@]1(C)CN(Cc2ccc(Nc3ncc(F)c(-c4cc(F)c5nc(C)n(C(C)C)c5c4)n3)nc2)CCO1` [Compound A8, (R)—N-(2-(4-((6-((5-fluoro-4-(4-fluoro-1-isopropyl-2-methyl-1H-benzo[d]imidazol-6-yl)pyrimidin-2-yl)amino)pyridin-3-yl)methyl)-2-methylmorpholin-2-yl)ethyl)-N-methylacetamide], the IC50 in data set [1] was found to be 170 nM; in data set [3], 970 nM. Moreover, in data set [1], the “Ther Window” value came to 5.64. Moreover, the solubility kinetic at 24 h is 128 µM (≈ 76.1 µg/mL) in [2] (setting [7]) and 200 µM (≈ 119 µg/mL) in [2] (setting [8]). For the same compound, the Ki came out at 11.3 nM on CDK6 and 1.76 nM at CDK4. The same compound yielded a half-life at 1 μM in data set [4] of 0.0707 h. Besides, the hERG on hERG potassium channels came to 11.87%. In [5], the Papp A→B at 2 h, 2 μM worked out at 2.35 ×10⁻⁶ cm/s. Moreover, the IC50 at 10 min in [6] was 30900 nM.
Take `Cc1nc2c(F)cc(-c3nc(Nc4ccc(CN5CCO[C@](C)(CCN6CC[C@H](F)C6)C5)cn4)ncc3F)cc2n1C(C)C` [Compound A14, 5-fluoro-4-(4-fluoro-1-isopropyl-2-methyl-1H-benzo[d]imidazol-6-yl)-N-(5-(((R)-2-(2-((S)-3-fluoropyrrolidin-1-yl)ethyl)-2-methylmorpholino)methyl)pyridin-2-yl)pyrimidin-2-amine]: the IC50 in [1] was 80 nM; in data set [3], 980 nM. The “Ther Window” value in data set [1] was found to be 11.53. Also, the Ki was 4.99 nM on CDK6 and 0.92 nM at CDK4. Further, the half-life at 1 μM in [4] came to 0.178 h. On hERG potassium channels, this compound had a hERG of 23.34%. In data set [5], this compound gave a Papp A→B at 2 h, 2 μM of 0.69 ×10⁻⁶ cm/s. This compound displayed an IC50 at 10 min in data set [6] of 16900 nM.
Regarding `Cc1nc2c(F)cc(-c3nc(Nc4ccc(CN5CCO[C@](C)(CCN6CC[C@@H](F)C6)C5)cn4)ncc3F)cc2n1C(C)C` [Compound A15, 5-fluoro-4-(4-fluoro-1-isopropyl-2-methyl-1H-benzo[d]imidazol-6-yl)-N-(5-(((R)-2-(2-((R)-3-fluoropyrrolidin-1-yl)ethyl)-2-methylmorpholino)methyl)pyridin-2-yl)pyrimidin-2-amine], the IC50 in [1] was 80 nM; in data set [3] it was 590 nM. In [1], the “Ther Window” value is 7.07. Moreover, the Ki on CDK6 stood at 4.04 nM; on CDK4 it was 0.78 nM. The compound also came in with a half-life at 1 μM in data set [4] of 0.322 h. This compound also registered a hERG on hERG potassium channels of 17.46%. This compound also yielded an apical-to-basolateral permeability (Papp A→B) at 2 h, 2 μM in data set [5] of 0.8 ×10⁻⁶ cm/s. In data set [6], the IC50 at 10 min came to 17100 nM.
`Cc1nc2c(F)cc(-c3nc(Nc4ccc(CN5CCO[C@](C)(CCN6CCCC6)C5)cn4)ncc3F)cc2n1C(C)C` [Compound A16, (R)-5-fluoro-4-(4-fluoro-1-isopropyl-2-methyl-1H-benzo[d]imidazol-6-yl)-N-(5-((2-methyl-2-(2-(pyrrolidin-1-yl)ethyl)morpholino)methyl)pyridin-2-yl)pyrimidin-2-amine]: the IC50 in data set [1] was 60 nM; in data set [3] it was 870 nM. For the same compound, the “Ther Window” value in data set [1] amounted to 15.20. Moreover, the figures for the Ki at CDK6 and on CDK4 were 5.81 nM and 1.42 nM, respectively. The compound further showed a half-life at 1 μM in data set [4] of 3.61 h. The hERG on hERG potassium channels is 18.09%. Besides, the Papp A→B at 2 h, 2 μM in data set [5] was 0.01 ×10⁻⁶ cm/s. In data set [6], this compound showed an IC50 at 10 min of 47900 nM.
On to `Cc1nc2c(F)cc(-c3nc(Nc4ccc(CN5CCO[C@](C)(CCN6CCC6)C5)cn4)ncc3F)cc2n1C(C)C` [Compound A17, (R)—N-(5-((2-(2-(azetidin-1-yl)ethyl)-2-methylmorpholino)methyl)pyridin-2-yl)-5-fluoro-4-(4-fluoro-1-isopropyl-2-methyl-1H-benzo[d]imidazol-6-yl)pyrimidin-2-amine], for which the IC50 in [1] came to 50 nM; in data set [3], 850 nM. The “Ther Window” value in [1] was 15.41. In addition, the Ki on CDK6 amounted to 5.25 nM; at CDK4, 1.03 nM. Moreover, in data set [4], the half-life at 1 μM came out at 3.61 h. The compound also showed a hERG at hERG potassium channels of 20.47%. The compound further came in with a Papp A→B at 2 h, 2 μM in data set [5] of 0.02 ×10⁻⁶ cm/s. Also, in data set [6], the IC50 at 10 min stood at 51700 nM.
On to `COC1(C)CN(CC[C@]2(C)CN(Cc3ccc(Nc4ncc(F)c(-c5cc(F)c6nc(C)n(C(C)C)c6c5)n4)nc3)CCO2)C1` [Compound A18, (R)-5-fluoro-4-(4-fluoro-1-isopropyl-2-methyl-1H-benzo[d]imidazol-6-yl)-N-(5-((2-(2-(3-methoxy-3-methylazetidin-1-yl)ethyl)-2-methylmorpholino)methyl)pyridin-2-yl)pyrimidin-2-amine], for which the IC50 in [1] came out at 90 nM; in data set [3] it was 920 nM. Moreover, the “Ther Window” value in [1] turned out to be 10.77. The Ki on CDK6 is 7.62 nM; on CDK4 it was 1.55 nM. The half-life at 1 μM in [4] was 1.13 h. The compound further gave a hERG at hERG potassium channels of 21.45%. In [5], this compound yielded a Papp A→B at 2 h, 2 μM of 0.11 ×10⁻⁶ cm/s. Also, the IC50 at 10 min in [6] came out at 26800 nM.
Consider `CC[C@@]1(CCN(C)C)CN(Cc2ccc(Nc3ncc(F)c(-c4cc(F)c5nc(C)n(C(C)C)c5c4)n3)nc2)CCO1` [Compound A20, (R)—N-(5-((2-(2-(dimethylamino)ethyl)-2-ethylmorpholino)methyl)pyridin-2-yl)-5-fluoro-4-(4-fluoro-1-isopropyl-2-methyl-1H-benzo[d]imidazol-6-yl)pyrimidin-2-amine], for which the IC50 came to 80 nM in data set [1] and 1000 nM in [3]. In data set [1], the “Ther Window” value amounted to 12.21. For the same compound, the Ki on CDK6 came to 3.69 nM; at CDK4, 0.55 nM. In data set [4], this compound returned a half-life at 1 μM of 1.68 h. Also, the hERG at hERG potassium channels amounted to 32.36%. In data set [5], the apparent permeability from apical to basolateral (Papp A→B) at 2 h, 2 μM turned out to be 0.07 ×10⁻⁶ cm/s. The same compound returned an IC50 at 10 min in [6] of 24800 nM.
In the case of `Cc1nc2c(F)cc(-c3nc(Nc4ccc(CN5CCO[C@](C)(CCN(C)CC(F)F)C5)cn4)ncc3F)cc2n1C(C)C` [Compound A29, (R)—N-(5-((2-(2-((2,2-difluoroethyl)(methyl)amino)ethyl)-2-methylmorpholino)methyl)pyridin-2-yl)-5-fluoro-4-(4-fluoro-1-isopropyl-2-methyl-1H-benzo[d]imidazol-6-yl)pyrimidin-2-amine], the values for the IC50 in data set [1] and in data set [3] were 170 nM and 890 nM, respectively. Besides, the “Ther Window” value in data set [1] was found to be 5.36. In addition, the Ki on CDK6 worked out at 10.5 nM; at CDK4 it was 1.8 nM. In addition, the half-life at 1 μM in [4] is 0.0973 h. This compound yielded a hERG at hERG potassium channels of 25.45%. The same compound returned an apical-to-basolateral permeability (Papp A→B) at 2 h, 2 μM in data set [5] of 1.95 ×10⁻⁶ cm/s. Besides, the IC50 at 10 min in data set [6] turned out to be 16400 nM.
